{
  "source": "paper PMC11505038",
  "about": "“Kalata B1 Enhances Temozolomide Toxicity to Glioblastoma Cells” (Biomedicines, 2024)",
  "key": {"[1]": {"tested_on": "T-98G human glioblastoma cells", "test": "cells", "settings": "read-out: IC50 (μM) ± S.D.; T-98G, MTT, 72 h, 6000 cells/well, best fit nonlinear regression, triplicate wells, n = 3", "procedure": "(§1) SH-SY5Y human neuroblastoma cells (population doubling (PD) 20−24), T-98G, and U-87 MG human glioblastoma cells were removed from cryogenic storage, thawed rapidly in a water bath (37 °C) and reconstituted in 75 cm^2 flasks. For SH-SY5Y, the following media were used: Dulbecco’s modified Eagle’s medium/Nutrient F12 Ham (Sigma-Aldrich, Cat. No. D8437) containing 10% heat-inactivated fetal bovine serum, 4 mM L-glutamine, 100 U/mL penicillin, and 100 μg/mL streptomycin. For U-87 MG and T-98G Eagle’s minimal essential medium (ATCC: The Global Bioresource Center, Cat. No. ATCC 30-2003), containing 10% heat-inactivated fetal bovine serum, 4 mM L-glutamine, 100 U/mL penicillin, and 100 μg/mL streptomycin were used.\n(§2) Cells were incubated at 37 °C in a humidified atmosphere of 5% CO2 and 95% air until recovered and ready for passaging (approximately 4 days). At between 80% and 90% confluence, the cells were trypsinized with warm (37 °C) sterile 0.5% Trypsin-EDTA (Thermo Fisher, Cat. No. 15400054) and passaged into 175 cm^2 flasks, where they were left to multiply until they reached 80−90% confluence. To plate cells: cultures were trypsinized, resuspended in 20 mL sterile PBS, counted using a cell counter (Olympus cell counter model R1), and plated in 96-well plates at an optimal density of 6000 cells/well in the designated culture media. The cells were left to adhere overnight before treatment the following day, when the culture medium was removed and replaced with the treatment medium. All incubations were conducted in triplicate wells and repeated at least three times (n = 3).\n(§3) To calculate TMZ IC50 values in each cell line, TMZ was dissolved in DMSO at a stock concentration of 103 mM, which was then diluted into culture medium on the day of use, with the DMSO final concentration always less than 0.1%. The following concentrations of TMZ were used in the experiments: 0.5, 5, 50, 500, 2500, 5000 μM. The media were sterilized for each treatment media with a 0.22 μm filter before they were added to cell cultures. To determine the IC50 values for each cyclotide in each cell type, cyclotides were dissolved into 10% DMSO and then dilutions used to screen cyclotides with a final DMSO concentration of less than 0.1% The following concentrations of cyclotides were used: 0.1, 1, 5, 10 μM. For co-exposure experiments, a simultaneous exposure of cyclotide and TMZ at each respective dose was added to cell cultures (100 μL final volume per well).\n(§4) In accordance with the methods developed by Mosmann and colleagues, the MTT assay was conducted using the Roche cell proliferation kit (Cat. No. 11465007001). Briefly, cells that are active can cleave MTT. The MTT is originally a yellow tetrazolium salt that undergoes a colorimetric change to purple formazan crystals, and the change in absorbance can be measured as an indicator of cell viability/proliferation. For these experiments, cells were plated into 96-well flat-bottom plates, as described in the cell culture above. […] To align with our previous work, experiments were conducted with a 72 h time frame for cytotoxicity evaluation.\n(§5) After a 72 h incubation period, plates were removed from the incubator and 10 µL of MTT was added to each well. The plates were returned to the incubator for an additional 4 h, after which 100 µL of a solubilization solution was added to each well. The plates were returned to incubation overnight, and the next day absorbances were read at 570 nm on a Molecular Devices FlexStation 3 using SoftMax Pro Microplate Data Acquisition and Analysis Software (version 7.0.2)."}, "[2]": {"tested_on": "U-87 MG human glioblastoma cells", "test": "cells", "settings": "read-out: IC50 (μM) ± S.D.; U-87 MG, MTT, 72 h, 6000 cells/well, cyclotides 0.1-10 μM, TMZ 0.5-5000 μM, best fit nonlinear regression, triplicate wells, n = 3", "procedure": "as §1, §2, §3, §4, §5"}, "[3]": {"test": "Human serum stability assay (UPLC-MS)", "settings": "37 °C", "procedure": "Established protocols were used to analyze peptide stability in human serum isolated from male AB plasma (Sigma-Aldrich). Briefly, thawed plasma was centrifuged for 10 min at 15,000× g to concentrate lipids. The supernatant was carefully removed with a Pasteur pipette and incubated for 15 min at 37 °C, 5% CO2. […] Controls were synthetic Kalata B1 or TMZ in PBS that were incubated in parallel with human serum test compounds. Serum proteins were denatured with urea (final concentration of 3M) at 4 °C for 10 min., at each time point. Afterwards, trichloroacetic acid (7% final v/v) was added for 10 min to precipitate the proteins. Each sample was centrifuged for 10 min at 15,000× g; the supernatant was removed an evaluated in triplicate using UPLC-MS.\nWe conducted peptide stability assays in human serum isolated from male AB plasma and then analyzed with UPLC-MS. Synthetic Kalata B1 and TMZ were incubated with human serum and the portion of the peptide remaining was quantified by calculating the area of the respective elution peak in UPLC-MS, compared to the control.\nPercentage of Kalata B1 and TMZ remaining upon incubation with human serum. The portion of serum-treated peptide remaining was determined by calculating the area of the respective elution peak in UPLC-MS and comparing it with the control without incubation. Data points are means ± SEM."}, "[4]": {"tested_on": "U-87 MG glioblastoma cells", "test": "MTT co-exposure of synthetic Kalata B1 and TMZ in U-87 MG cells", "format": "cell-based, human", "settings": "TMZ 100 µM + synthetic Kalata B1 0.5 µM, MTT 72 h, ANOVA/Tukey", "procedure": "To calculate TMZ IC50 values in each cell line, TMZ was dissolved in DMSO at a stock concentration of 103 mM, which was then diluted into culture medium on the day of use, with the DMSO final concentration always less than 0.1%. The following concentrations of TMZ were used in the experiments: 0.5, 5, 50, 500, 2500, 5000 μM. The media were sterilized for each treatment media with a 0.22 μm filter before they were added to cell cultures. […]\nIn accordance with the methods developed by Mosmann and colleagues, the MTT assay was conducted using the Roche cell proliferation kit (Cat. No. 11465007001). […] The MTT is originally a yellow tetrazolium salt that undergoes a colorimetric change to purple formazan crystals, and the change in absorbance can be measured as an indicator of cell viability/proliferation. […]\nFigure 8 Synthetic Kalata B1 increased TMZ-induced cell death in U-87 MG glioblastoma cultures. To determine if synthetic Kalata B1 (K) enhances TMZ (T)-induced cell death in U-87 MG cells, MTT was measured after incubating the cell cultures with concentrations of K (0.5, 1.0, 2.0, and 4.0 μM) and T (100, 200, 400, and 800 μM) both alone and when co-exposed to synthetic Kalata B1 and TMZ as illustrated in panels (A–M). […] Cell viability was measured using MTT and expressed as a percentage of control cultures (culture medium with DMSO only). […]"}, "[5]": {"tested_on": "U-87 glioblastoma cells", "settings": "MTT; cited from earlier work"}, "[6]": {"tested_on": "U-251 glioblastoma cells", "settings": "MTT; cited from earlier work"}, "[7]": {"tested_on": "glioblastoma cells", "settings": "cytotoxicity; ref Our previous research; cited from earlier work"}, "[8]": {"tested_on": "U-87 MG cells", "settings": "U-87 MG; cited from earlier work"}, "[9]": {"tested_on": "mice", "settings": "cited from earlier work", "from_the_text": "(§6) The development of an in vivo mouse model is vital, yet it requires expertise, significant finances, and large quantities of the target cyclotide. […] A mouse model of anaplastic large cell lymphoma (ALCL) was developed, and the Kalata B1 mutant, named [T20K] Kalata B1, decreased tumor weight and increased ..."}, "[10]": {"tested_on": "primary human brain endothelial cells", "settings": "SYTOX green assay; cited from earlier work", "from_the_text": "Challenges commonly associated with treating cancer can include low drug uptake across the cellular lipid bilayer, the activity of pumps, such as p-glycoprotein, that efflux drugs out of the cell, and the impenetrability of the blood–brain barrier. Our previous research provided supporting evidence that cyclotides such as CyO2 can act as adjuvants in drug-resistant breast cancer cells, whereby cyclotides sensitize human breast adenocarcinoma (MCF-7) and drug-resistant human breast adenocarcinoma (MCF-7/ADR) cells to the FDA-approved anti-cancer drug, doxorubicin. In that case, one ..."}, "[11]": {"tested_on": "anaplastic large cell lymphoma (ALCL)", "settings": "mouse model of anaplastic large cell lymphoma; cited from earlier work", "from_the_text": "as §6"}, "[12]": {"tested_on": "interleukin-2 (IL-2)", "settings": "cited from earlier work", "from_the_text": "Although a mechanistic evaluation of Kalata B1 bioactivity was beyond the scope of this research, a brief discussion of the previous mechanistic studies is justified. For instance, Henriques and colleagues provided supporting evidence that cyclotides can target phosphatidylethanolamine (PE)-enriched phospholipids and penetrate the cell via both endocytosis and membrane translocation."}},
  "data": [
    {"molecule": "CC(C)C[C@@H]1NC(=O)CNC(=O)[C@H](CC(N)=O)NC(=O)[C@H](CCCNC(=N)N)NC(=O)[C@H]([C@@H](C)O)NC(=O)[C@@H]2CSSC[C@@H]3NC(=O)[C@H]([C@@H](C)O)NC(=O)CNC(=O)CNC(=O)[C@H](C(C)C)NC(=O)[C@@H]4CSSC[C@H](NC(=O)[C@H]([C@@H](C)O)NC(=O)[C@H](CSSC[C@H](NC(=O)[C@H](C(C)C)NC(=O)[C@@H]5CCCN5C1=O)C(=O)NCC(=O)N[C@@H](CCC(=O)O)C(=O)N[C@@H]([C@@H](C)O)C(=O)N4)NC(=O)CNC(=O)[C@@H]1CCCN1C(=O)[C@H]([C@@H](C)O)NC(=O)[C@H](CC(N)=O)NC3=O)C(=O)N[C@@H](CO)C(=O)N[C@@H](Cc1c[nH]c3ccccc13)C(=O)N1CCC[C@H]1C(=O)N[C@@H](C(C)C)C(=O)N2", "note": "[Kalata B1 (synthetic), Kalata B1]", "values": [
      {"measurement": "IC50", "setting": "[1]", "result": "2.6 ± 0.24", "unit": "µM"},
      {"measurement": "IC50", "setting": "[2]", "result": "5.4 ± 1.06", "unit": "µM"},
      {"measurement": "Stability in human serum (in words)", "setting": "[3]; data points of 3 h, 8 h and 24 h, human serum from male AB plasma, 300 µM stock diluted 10 times, UPLC-MS peak area vs control, triplicate, listed as synthetic Kalata B1", "result": "remains stable"},
      {"measurement": "Time for which the peptide remains stable in human serum", "setting": "[3]; human serum isolated from male AB plasma, UPLC-MS", "result": "at least 24 h"},
      {"measurement": "Fold lower TMZ concentration than TMZ IC50 still giving significant cytotoxicity on co-exposure", "setting": "[4]", "result": 16, "unit": "fold"}
    ]},
    {"molecule": "Cycloviolacin O2 [CyO2]", "values": [
      {"measurement": "IC50", "setting": "[5]", "result": 450, "unit": "nM"},
      {"measurement": "IC50", "setting": "[6]", "result": 790, "unit": "nM"},
      {"measurement": "IC50", "setting": "[7]", "result": 4500, "unit": "nM"},
      {"measurement": "Fold less TMZ required for significant cell death on co-exposure with the cyclotide", "setting": "[8]", "result": 8, "unit": "fold"},
      {"measurement": "In vivo toxicity at 1.5 mg/kg", "setting": "[9]; mice treated with 1.5 mg/kg in tumor mouse models", "result": "no signs of discomfort"},
      {"measurement": "In vivo toxicity, single injection at 2 mg/kg", "setting": "[9]; mice, single injection 2 mg/kg", "result": "lethal"},
      {"measurement": "Membrane disruption", "setting": "[10]", "result": "did not produce significant membrane disruption"}
    ]},
    {"molecule": "[T20K] Kalata B1: a Kalata B1 mutant (cyclo(GLPVCGETCVGGTCNTPGCKCSWPVCTRN); disulfide (positions not given here); ends not checked; also: disulfides, places not given here; UniProt P56254 89-117, looked up, variant T20K)", "values": [
      {"measurement": "Anti-tumor effect in ALCL mouse model", "setting": "[11]", "result": "decreased tumor weight and increased apoptosis"},
      {"measurement": "Effect on IL-2 expression, IL-2 cytokine secretion and IL-2 gene expression", "setting": "[12]", "result": "could decrease"}
    ]}
  ]
}
